Experimental data taken from ChEMBL document CHEMBL5518167, “Degradation of Polo-like Kinase 1 by the Novel Poly-Arginine N-Degron Pathway PROTAC Regulates Tumor Growth in Nonsmall Cell Lung Cancer” (J Med Chem, 2024).
Active and inactive are the calls of the source. The calls are words filed in the database; no cut-off is given here. Where a SMILES comes first, the peptide text is derived from it. Bridges are numbered along the chain shown (N, C = ends). [ ]: non-standard residue; d: D form. His(π-(CH2)8Ph) = N[C@@H](Cc1cncn1CCCCCCCCc1ccccc1)C(=O)O; pT = C[C@@H](OP(=O)(O)O)[C@H](N)C(=O)O; Ahx = NCCCCCC(=O)O

How the values were obtained:
NCI-H1975 [1] = test: Induction of cell cycle arrest in human NCI-H1975 cells assessed as G2/M phase arrest at 10 uM incubated for 24 hrs by PI staining based flow cytometry analysis; type: functional
UBR/PLK1 (Homo sapiens) [2] = test: Protac activity at UBR/PLK1 in human A549 cells assessed as PLK1 degradation at 5 to 30 uM preincubated for 24 hrs followed by MG132 addition for 8 hrs by immunoblotting analysis; conditions: dose 5-30 µM, time 32.0 hrs
[3] = Drug uptake in human HeLa cells cell membrane at 10 uM incubated for 24 hrs by PI staining based inverted confocal laser scanning fluorescence microscopic analysis; type: ADME
A549 [4] = test: Cytotoxicity against human A549 cells incubated for 24 hrs by MTT assay; type: functional, cell-based; conditions: A549, 24 h
HeLa [5] = test: Induction of apoptosis in human HeLa cells at 18 uM incubated for 24 hrs by fluorescence microscopic analysis; type: functional, cell-based
UBR/PLK1 (Homo sapiens) [6] = test: Protac activity at UBR/PLK1 in human PC-9 cells assessed as PLK1 degradation at 5 to 30 uM preincubated for 24 hrs followed by MG132 addition for 8 hrs by immunoblotting analysis; conditions: dose 5-30 µM, time 32.0 hrs
PC-9 [7] = test: Induction of cell cycle arrest in human PC-9 cells assessed as fold increase in S phase population at 10 uM incubated for 24 hrs by PI staining based flow cytometry analysis; type: functional
A549 [8] = test: Induction of cell cycle arrest in human A549 cells assessed as G2/M phase arrest at 10 uM incubated for 24 hrs by PI staining based flow cytometry analysis; type: functional
UBR/PLK1 (Homo sapiens) [9] = test: Protac activity at UBR/PLK1 in human HeLa cells assessed as PLK1 degradation at 5 uM incubated for 24 hrs by immunoblotting analysis
HeLa [10] = test: Antitumor activity against human HeLa cells xenografted in iv dosed nude mouse assessed as reduction in tumor size; type: functional, organism-based; conditions: dose 10.0 mg/kg
A549 [11] = test: Induction of cell cycle arrest in human A549 cells assessed as delay in S phase progression at 10 uM incubated for 24 hrs by PI staining based flow cytometry analysis; type: functional
NCI-H1975 [12] = test: Antitumor activity against human NCI-H1975 cells harboring L858R/T790M double mutant xenografted in iv dosed nude mouse assessed as tumor growth inhibition administered for every 3 days in presence of 5 mg/kg osimertinib; type: functional, organism-based
UBR/PLK1 (Homo sapiens) [13] = test: Protac activity at UBR/PLK1 in human PC-9 cells assessed as PLK1 degradation at 25 uM incubated for 24 hrs by immunoblotting analysis
[14] = Toxicity in nude mouse xenografted with human NCI-H1975 cells assessed as change in body weight at 10 mg/kg, iv administered for every 3 days; type: organism-based; conditions: in vivo, 72 h
UBR/PLK1 (Homo sapiens) [15] = test: Protac activity at UBR/PLK1 in human NCI-H1975 cells assessed as PLK1 degradation at 30 uM incubated for 24 hrs by immunoblotting analysis
HeLa [16] = test: Cytotoxicity against human HeLa cells incubated for 24 hrs by MTT assay; type: functional, cell-based
[17] = target: E3 ubiquitin-protein ligase UBR1 (Homo sapiens) (UniProt Q8IWV7); test: Binding affinity to UBR1 (unknown origin) expressed in HEK293T cells incubated for 3 hrs by pull-down assay; type: cell-based
Sequence of E3 ubiquitin-protein ligase UBR1 (Homo sapiens) (Q8IWV7 whole entry): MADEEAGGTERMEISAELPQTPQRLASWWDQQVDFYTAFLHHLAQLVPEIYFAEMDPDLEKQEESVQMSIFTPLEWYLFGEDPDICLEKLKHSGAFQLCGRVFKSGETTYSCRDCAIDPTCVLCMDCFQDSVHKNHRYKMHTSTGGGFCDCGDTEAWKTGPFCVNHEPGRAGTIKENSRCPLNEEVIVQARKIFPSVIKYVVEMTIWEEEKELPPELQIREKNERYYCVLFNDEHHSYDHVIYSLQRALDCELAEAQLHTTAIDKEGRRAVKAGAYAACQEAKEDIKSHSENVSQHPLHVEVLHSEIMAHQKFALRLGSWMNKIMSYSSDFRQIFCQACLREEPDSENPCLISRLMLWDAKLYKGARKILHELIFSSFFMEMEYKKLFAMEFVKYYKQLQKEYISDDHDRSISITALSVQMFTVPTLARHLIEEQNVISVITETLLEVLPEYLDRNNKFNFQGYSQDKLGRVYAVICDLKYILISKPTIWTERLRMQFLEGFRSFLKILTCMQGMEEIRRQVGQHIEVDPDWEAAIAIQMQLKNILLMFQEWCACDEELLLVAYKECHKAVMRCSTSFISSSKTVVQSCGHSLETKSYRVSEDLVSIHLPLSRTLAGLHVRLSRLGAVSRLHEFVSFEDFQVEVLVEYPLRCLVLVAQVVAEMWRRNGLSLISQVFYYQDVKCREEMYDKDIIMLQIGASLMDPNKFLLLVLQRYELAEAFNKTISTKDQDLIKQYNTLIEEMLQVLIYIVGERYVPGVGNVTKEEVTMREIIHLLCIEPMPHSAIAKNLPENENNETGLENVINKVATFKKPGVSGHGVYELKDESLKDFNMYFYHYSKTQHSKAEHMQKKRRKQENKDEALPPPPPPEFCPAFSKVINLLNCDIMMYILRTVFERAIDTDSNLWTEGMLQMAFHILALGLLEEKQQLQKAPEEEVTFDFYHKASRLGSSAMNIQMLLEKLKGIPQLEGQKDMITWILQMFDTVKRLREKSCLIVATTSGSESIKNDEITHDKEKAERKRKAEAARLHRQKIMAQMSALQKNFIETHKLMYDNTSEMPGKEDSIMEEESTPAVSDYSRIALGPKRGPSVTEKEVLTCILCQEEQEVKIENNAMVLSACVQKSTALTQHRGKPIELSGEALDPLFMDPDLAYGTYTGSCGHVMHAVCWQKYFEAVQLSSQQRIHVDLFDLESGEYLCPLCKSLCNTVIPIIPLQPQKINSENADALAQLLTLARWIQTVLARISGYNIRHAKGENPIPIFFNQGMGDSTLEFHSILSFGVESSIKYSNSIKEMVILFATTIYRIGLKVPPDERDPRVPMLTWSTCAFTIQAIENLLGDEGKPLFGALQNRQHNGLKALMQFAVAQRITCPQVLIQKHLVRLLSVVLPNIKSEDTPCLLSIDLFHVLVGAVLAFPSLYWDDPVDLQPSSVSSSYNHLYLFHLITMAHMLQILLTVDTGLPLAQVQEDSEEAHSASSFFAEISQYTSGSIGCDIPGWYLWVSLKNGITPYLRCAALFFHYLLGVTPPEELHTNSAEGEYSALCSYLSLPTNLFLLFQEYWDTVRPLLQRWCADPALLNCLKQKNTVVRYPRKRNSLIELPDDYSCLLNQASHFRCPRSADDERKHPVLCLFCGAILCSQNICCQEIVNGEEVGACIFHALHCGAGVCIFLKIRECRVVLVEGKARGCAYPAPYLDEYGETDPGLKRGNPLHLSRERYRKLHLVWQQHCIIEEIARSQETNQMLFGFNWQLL

[18] = target: E3 ubiquitin-protein ligase UBR2 (Homo sapiens) (UniProt Q8IWV8); test: Binding affinity to UBR2 (unknown origin) expressed in HEK293T cells incubated for 3 hrs by pull-down assay; type: cell-based
Sequence of E3 ubiquitin-protein ligase UBR2 (Homo sapiens) (Q8IWV8 whole entry): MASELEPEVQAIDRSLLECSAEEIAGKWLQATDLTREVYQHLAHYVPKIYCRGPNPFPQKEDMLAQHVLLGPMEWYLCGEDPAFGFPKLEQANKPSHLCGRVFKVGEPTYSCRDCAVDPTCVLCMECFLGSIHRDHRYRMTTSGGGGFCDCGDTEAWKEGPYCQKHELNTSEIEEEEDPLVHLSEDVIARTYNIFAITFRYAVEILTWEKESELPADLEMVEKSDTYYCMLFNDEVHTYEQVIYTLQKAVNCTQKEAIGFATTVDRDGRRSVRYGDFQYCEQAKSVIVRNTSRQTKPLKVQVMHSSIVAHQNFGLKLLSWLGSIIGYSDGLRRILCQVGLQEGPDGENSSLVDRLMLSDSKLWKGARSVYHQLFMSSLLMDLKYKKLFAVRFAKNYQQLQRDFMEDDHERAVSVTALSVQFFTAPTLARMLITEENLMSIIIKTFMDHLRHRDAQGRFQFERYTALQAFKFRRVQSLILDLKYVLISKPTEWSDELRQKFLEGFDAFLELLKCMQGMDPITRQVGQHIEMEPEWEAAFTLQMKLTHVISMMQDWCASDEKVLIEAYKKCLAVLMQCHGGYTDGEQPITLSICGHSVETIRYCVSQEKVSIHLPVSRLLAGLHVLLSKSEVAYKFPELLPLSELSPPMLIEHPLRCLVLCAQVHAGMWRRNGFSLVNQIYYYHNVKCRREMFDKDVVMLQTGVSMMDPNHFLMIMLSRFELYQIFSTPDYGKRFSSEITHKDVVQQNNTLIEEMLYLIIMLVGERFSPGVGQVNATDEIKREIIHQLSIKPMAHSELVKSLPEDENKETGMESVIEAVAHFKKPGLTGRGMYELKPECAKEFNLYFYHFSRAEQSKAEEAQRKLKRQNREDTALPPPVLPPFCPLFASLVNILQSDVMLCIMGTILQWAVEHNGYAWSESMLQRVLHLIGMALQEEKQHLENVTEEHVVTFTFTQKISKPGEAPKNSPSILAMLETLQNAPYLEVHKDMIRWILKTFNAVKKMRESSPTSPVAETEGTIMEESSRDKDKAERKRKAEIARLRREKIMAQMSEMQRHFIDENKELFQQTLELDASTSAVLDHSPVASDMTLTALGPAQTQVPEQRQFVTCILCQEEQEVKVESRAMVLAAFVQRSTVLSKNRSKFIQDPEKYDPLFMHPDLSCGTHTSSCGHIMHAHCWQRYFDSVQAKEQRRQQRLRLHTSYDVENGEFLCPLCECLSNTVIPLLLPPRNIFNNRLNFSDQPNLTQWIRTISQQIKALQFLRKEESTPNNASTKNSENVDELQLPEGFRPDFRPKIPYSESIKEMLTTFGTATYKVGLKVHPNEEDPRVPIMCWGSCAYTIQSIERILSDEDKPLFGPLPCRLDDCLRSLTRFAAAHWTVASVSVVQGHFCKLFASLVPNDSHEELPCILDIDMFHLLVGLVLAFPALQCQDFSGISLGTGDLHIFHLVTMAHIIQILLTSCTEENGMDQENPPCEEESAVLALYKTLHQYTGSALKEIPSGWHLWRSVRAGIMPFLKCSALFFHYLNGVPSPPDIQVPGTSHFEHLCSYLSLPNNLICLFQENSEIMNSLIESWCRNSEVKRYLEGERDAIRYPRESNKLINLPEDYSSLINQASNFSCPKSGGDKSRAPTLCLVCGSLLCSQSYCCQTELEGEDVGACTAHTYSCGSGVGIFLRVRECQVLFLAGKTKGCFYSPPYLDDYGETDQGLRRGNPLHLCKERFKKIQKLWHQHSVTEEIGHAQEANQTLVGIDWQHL

UBR/PLK1 (Homo sapiens) [19] = test: Protac activity at UBR/PLK1 in human NCI-H1975 cells assessed as PLK1 degradation incubated for 24 hrs by immunoblotting analysis; conditions: dose 5-25 µM
[20] = as above
HeLa [21] = test: Induction of cell cycle arrest in human HeLa cells assessed as G2/M phase arrest at 10 uM incubated for 24 hrs by PI staining based flow cytometry analysis; type: functional
PC-9 [22] = test: Cytotoxicity against human PC-9 cells incubated for 24 hrs by MTT assay; type: functional, cell-based; conditions: PC-9, 24 h
UBR/PLK1 (Homo sapiens) [23] = test: Protac activity at UBR/PLK1 in human HeLa cells assessed as PLK1 degradation incubated for 24 hrs by immunoblotting analysis; conditions: dose 25-100 µM
[24] = as above
HeLa [25] = test: Induction of cell cycle arrest in human HeLa cells assessed as fold increase in S phase population at 10 uM incubated for 24 hrs by PI staining based flow cytometry analysis; type: functional

For `C[C@@H](OP(=O)(O)O)[C@@H]1NC(=O)[C@H](Cc2cncn2CCCCCCCCc2ccccc2)NC(=O)[C@@H](NC(=O)CCCCCNC(=O)[C@H](CCCNC(=N)N)NC(=O)[C@H](CCCNC(=N)N)NC(=O)[C@H](CCCNC(=N)N)NC(=O)[C@H](CCCNC(=N)N)NC(=O)[C@H](CCCNC(=N)N)NC(=O)[C@H](CCCNC(=N)N)NC(=O)[C@H](CCCNC(=N)N)NC(=O)[C@H](CCCNC(=N)N)NC(=O)[C@H](CCCNC(=N)N)NC(=O)[C@H](CCCNC(=N)N)NC(=O)[C@H](CCCNC(=N)N)NC(=O)[C@@H](N)CCCNC(=N)N)CCC(=O)NCCCC[C@@H](C(N)=O)NC1=O` (H-RRRRRRRRRRRR[Ahx]E[His(π-(CH2)8Ph)][pT]K-NH2; lactam 14-17), the Activity (NCI-H1975 [1]) was 11%, the Activity (UBR/PLK1 (Homo sapiens) [2]) was “inactive” and the Drug uptake [3] was “Active”. For the same compound, the IC50 (A549 [4]) was 20.6 µM, the Activity (HeLa [5]) was “Active” and the Activity (UBR/PLK1 (Homo sapiens) [6]) was “inactive”. The Activity (PC-9 [7]) was “Active”, the Activity (A549 [8]) was 10% and the Emax (UBR/PLK1 (Homo sapiens) [9]) was 80%. For the same compound, the Activity (HeLa [10]) was “Dose-Dependent Effect”, the Activity (A549 [11]) was “Active” and the Activity (NCI-H1975 [12]) was “Dose-Dependent Effect”. The Activity (UBR/PLK1 (Homo sapiens) [13]) was > 90%, the Activity [14] was “Non-Toxic” and the Emax (UBR/PLK1 (Homo sapiens) [15]) was 95%. The IC50 (HeLa [16]) was 18 µM, the Activity [17] was “Active” and the Activity [18] was “Active”. The Activity (UBR/PLK1 (Homo sapiens) [19]) was “Dose-Dependent Effect”, the DC50 [20] was 12 µM and the Activity (HeLa [21]) was 21%. For the same compound, the IC50 (PC-9 [22]) was 17.1 µM, the Activity (UBR/PLK1 (Homo sapiens) [23]) was “Dose-Dependent Effect” and the DC50 [24] was 2.5 µM. The Activity (HeLa [25]) was “Active”.
